From patent US20150087722A1, “TREATMENT FOR BREAST TUMOR CELL METASTASIS” (China Medical University, priority 2012, published 2015)

Key:
[1] = system: Normal Rat Macrophage Cell (RAW264.7 cell strain); test: MTT cell viability assay; type: cell-based
[2] = system: E-cadherin and Vimentin in MDA-MB-231 cells; test: E-cadherin Luciferase activity / immunocytochemical analysis (ICC); type: cell-based, human
From the text: Thus, taking the MDA-MB-231 cell as an example, the expression results of E-cadherin and Vimentin in the cell were observed. FIG. 6 is a quantitative analysis diagram showing Luciferase activity of E-cadherin obtained from a primary antibody E-cadherin by an immunocytochemical analysis (ICC). In FIG. 6, a transformed cell strain only including an empty vector (pC3.1) is the negative control, and a cell strain including no compound II is the background control, the translational activity is defined as 100%. ICC includes embedding the tumor cells in paraffin and slicing the embedded cells into slides having a thickness of […] by a slicer, deparaffinizing, rehydrating and renaturating, picking the slide out and putting the slide into the primary antibody E-cadherin; reacting for 1.5 h and washing the slide for three times with PBS, reacting with the secondary antibody for 30 min and washing the slide for three times with PBS, staining the slide with 3′,3′-diaminobenzendine (DAB) at a ratio of 1:30, and the slide was mounted with Entellanz.

[3] = system: breast tumor cells MDA-MB-231; test: transwell invasion assay; type: cell-based, human; settings: 0.5, 1 and 2 μM, 20 h, with increasing concentration
Method: (§1) In the transwell invasion assay, the Matrigel which was a component of ECM was used to imitate the environment between cells. When the cells in a BD Matrigel™ Invasion Chamber were stimulated by growth factors in the Matrigel matrix, the cells secreted some matrix proteolytic enzymes to degrade the Matrigel, so as to facilitate invasion of cells. If the cells had strong invasion capability, the cells can be observed on the filter membrane after staining. In FIG. 15, 800 μl 10% FBS-DMEM was added into the transwell as a chemoattractant, and then 500 μl cells (1×10^5) were planted in the transwell. DMEM culture medium included no FBS and the compound II of 0.5, 1 and 2 μM. The breast tumor cells MDA-MB-231 were then cultured at an atmosphere of 5% CO2 in an incubator at 37° C. for 20 h. Subsequently the cells were stained with Giemsa for 15 min, and observed by taking photographs at a 200× field of an optical microscope. In the test each time each group was represented by a medium value of three repeat transwells. In FIGS. 16A, 16B and 17, the breast tumor cells MDA-MB-231 were replaced by the breast tumor cells MDA-MB-468, the breast tumor cells MDA-MB-435 and the human normal breast cells MCF-10A, respectively. Furthermore, in FIGS. 16A and 16B, the compound II was replaced by the compound I of 0.5, 1 and 2 μM and the compound I of 2.5, 5 and 7.5 μM. In FIG. 17, the compound II was replaced by compound I of 2 μM, TNF-α/TGF-β of 10 ng/ml, and compound I of 2 μM and TNF-α/TGF-β of 10 ng/ml. In the quantitative method of cell migration test, steps included randomly choosing 9 fields at the lower surface of the transwell membrane, counting the total cell number in each field; regarding the medium value of cell number in the 9 fields as an index of chemotaxis migration of breast tumor cells in each transwell, and each group of each test was represented by the medium value of 3 repeat transwells.

[4] = system: MMP-9 and MMP2 generated by cells induced by TNF-α; test: Zymography enzyme activity assay of cells stimulated by TNF-α; type: cell-based; settings: 20 μM, 10 ng/mL TNF-α
Method: In the Zymography enzyme activity assay, the cells (1×10^6) were planted in a 6-well plate. The next day after the cells were adhered to the wall, the cells were cultured in a serum free DMEM culture medium at an atmosphere of 5% CO2 in an incubator at 37° C. for 24 h. The compound II in different doses were added into the DMEM culture medium. In other test groups, the compound I was added, TNF-α/TGF-β were added or the compound I and TNF-α/TGF-β were added into the DMEM culture medium, wherein the concentration of compound I and TNF-α/TGF-β were […] and 10 ng/ml, respectively. The cells were cultured in the culture medium for 2 h and then washed with PBS. The cell culture medium was putted into a microcentrifuge tube and centrifuged for 10 min at 1500 rpm. The supernatant was taken to perform a protein gel electrophoresis (SDS-PAGE), so as to separate the proteins. Afterwards, the Gelatin or Casein was regarded as the substrate to analysis the enzyme activity of the proteins. Referring to FIG. 20, the Zymography enzyme activity assay was performed to detect the effect of the compound II on the enzyme activity of MMP-9 and MMP2 generated by cells induced and stimulated by 10 ng/mL TNF-α. The Zymography enzyme activity assay was described as the test example 4-1. […] Cells in the test groups included no the compound II. […]

[5] = system: breast tumor cells MDA-MB-435; test: transwell invasion assay; type: cell-based, human; settings: 2.5, 5 and 7.5 μM, with increasing concentration
Method: as §1

[6] = system: breast tumor cells MDA-MB-468; test: transwell invasion assay; type: cell-based, human; settings: 0.5, 1 and 2 μM, with increasing concentration
Method: as §1

[7] = system: human normal breast cells MCF-10A stimulated by TNF-α/TGF-β; test: transwell invasion assay; type: cell-based; settings: 2 μM with TNF-α/TGF-β 10 ng/ml simultaneously

Row | SMILES | IC50 [1] [µM] | expression of vimentin ([2]; MDA-MB-231) | expression amount of E-cadherin in the cytoplasm ([2]; MDA-MB-231, with dose increasing, FIG. 6) | migration of breast tumor cells MDA-MB-231 (transwell) [3] | enzyme activity of MMP2 [4] | migration of breast tumor cells MDA-MB-435 (transwell) [5] | migration of breast tumor cells MDA-MB-468 (transwell) [6] | invasion of MCF-10A [7]
1 | COC1=C(OC)C(=O)C(C)=C(C)C1=O [compound II] | 25.5 | inhibit expression of vimentin | increased | significantly reduced | no enzyme activity |  |  | 
2 | COC1=C(OC)C(=O)C(C)=CC1=O [compound I] |  |  |  |  |  | also significantly reduced | significantly reduced | significantly decreased
